Results from patent publication US20260201062A1, “LIGAND-DRUG CONJUGATE OF EXATECAN ANALOGUE, PREPARATION METHOD THEREFOR AND APPLICATION THEREOF” (JIANGSU HENGRUI MEDICINE CO., LTD., priority 2018, published 2026).
pIC50: −log10 of the molar value. Like-named read-outs stand apart in the source and are kept apart here.

Tests used:
[1] = test system: trastuzumab (Herceptin) resistant human breast cancer cell strain JIMT-1 transplanted tumor; experiment: Efficacy evaluation in JIMT-1 tumor-bearing mice; assay type: in vivo, Nunu nude mice; settings: 10 mg/kg, intraperitoneal injection 2 times, Day 34
Text: Formulation method: the drugs were all diluted and formulated with PBS. • 3. Test animals • Nunu nude mice, purchased from Beijing Vital River Laboratory Animal Technology Co., Ltd.
JIMT-1 cells (Nanjing Cobioer Biosciences Co., Ltd.) (5×10^6 cells/mouse, having 50% matrigel) were inoculated subcutaneously in the right rib of mouse. After the tumor grew for 8 days and reached 203.09±11.94 mm^3, the animals were randomly grouped into 6 groups with 8 animals per group (d1).
The drugs were administered by intraperitoneal injection for a total of 2 times. The tumor volume and body weight were measured twice a week, and the data were recorded.
Excel 2003 statistical software was used for data statistics: mean value was calculated as avg; SD value was calculated as STDEV; SEM value was calculated as STDEV/SQRT; P value between different groups was calculated as TTEST.
[formula] [formula] [formula] • wherein V0 and VT represent the tumor volume at the beginning of the test and at the end of the test, respectively. CRTV and TRTV represent the relative tumor volume of the blank control group (Vehicle, PBS) and the test group at the end of the test, respectively.

[2] = test system: SK-BR-3 tumor cells (human breast cancer cells); experiment: In vitro inhibition of compound of formula (D) on tumor cell proliferation (CTG), SK-BR-3; assay type: cell-based; settings: read-out: IC50 of in vitro inhibition on the proliferation of SK-BR-3 cells
Experimental: (§1) The purpose of this test is to test the in vitro inhibition effect of the drug compound of formula (D) of the present invention on the proliferation of U87MG cells (Chinese Academy of Sciences cell bank, Catalog #TCHu138) and SK-BR-3 tumor cells (human breast cancer cells, ATCC, article number HTB-30). The cells were treated with different concentrations of the compound in vitro. After 6 days of cultivation, the cell proliferation was determined by CTG reagent (CellTiter-Glo® Luminescent Cell Viability Assay, Promega, article number: G7573), and the in vitro activity of the compound was evaluated according to the IC50 value.
The test method for in vitro proliferation inhibition test of the present compounds on tumor cells is described below by taking in vitro proliferation inhibition test method onU87MG cells as an example. This method is also applicable to, but not limited to, the in vitro proliferation inhibition tests on other tumor cells. • 1. Cell cultivation: U87MG cells and SK-BR-3 cells were cultured in EMEM medium containing 10% FBS (GE, article number SH30024.01) and McCoy's 5A medium containing 10% FBS (Gibco, article number 16600-108), respectively. • 2. Cell preparation: U87MG cells and SK-BR-3 cells in logarithmic growth phase were washed with PBS (phosphate buffer, Shanghai Basal Media Technologies Co., Ltd.) once, and then added with 2-3 ml of trypsin (0.25% Trypsin-EDTA (1×), Gibico, Life Technologies) to digest for 2-3 min. 10-15 ml of cell culture medium was added after the cells were completely digested. The digested cells were eluted, and centrifuged at 1000 rpm for 5 min. The supernatant was discarded, and 10-20 ml of cell culture medium was added to resuspend the cells to obtain a single-cell suspension. • 3. Cell plating: the U87MG and SK-BR-3 single-cell suspensions were mixed well, and the cell densities were adjusted to 2.75×10^3 cells/ml and 8.25×10^3 cells/ml with the cell culture medium respectively. The density-adjusted cell suspension was mixed well, and added to a 96-well cell culture plate at 180 μl/well. 200 μl of culture medium was added to the peripheral wells of the 96-well plate. The plate was incubated in an incubator for 24 hours (37° C., 5% CO2). • 4. Compound formulation: the compound was dissolved with DMSO (dimethylsulfoxide, Shanghai Titan Technology Co., Ltd.) to obtain a stock solution with an initial concentration of 10 mM.
The initial concentration of the small molecule compound was 500 nM, and the formulating method is as follows.
30 μl of different test samples were respectively added into the first column of the 96-well U-shaped bottom formulating plate with a sample concentration of 100 µM. 20 µl of DMSO was added to each well from the second column to the 11th column. […]

U87MG cells = experiment: In vitro inhibition of compound of formula (D) on tumor cell proliferation (CTG), U87MG; assay type: cell-based; settings: Homo sapiens, U-87 MG, 144 h, read-out: IC50 of in vitro inhibition on the proliferation of U87 cells
Experimental: as §1
The test method for in vitro proliferation inhibition test of the present compounds on tumor cells is described below by taking in vitro proliferation inhibition test method onU87MG cells as an example. This method is also applicable to, but not limited to, the in vitro proliferation inhibition tests on other tumor cells. • 1. Cell cultivation: U87MG cells and SK-BR-3 cells were cultured in EMEM medium containing 10% FBS (GE, article number SH30024.01) and McCoy's 5A medium containing 10% FBS (Gibco, article number 16600-108), respectively. • 2. […]

[3] = 144 h, SK-BR-3, 6 days of cultivation, CTG reagent

Compound | pIC50 [2, 3] | pIC50 ([2]; SK-BR-3, 144 h) | pIC50 (U87MG cells) | also measured
T-DM1 | – | – | – | tumor inhibition rate [1]: no inhibition effect on tumor
CC[C@@]1(O)C(=O)OCc2c1cc1n(c2=O)Cc2c-1nc1cc(F)c(C)c3c1c2[C@@H](NC(=O)C1(O)CCC1)CC3 [Compound 7, N-((1S,9S)-9-Ethyl-5-fluoro-9-hydroxy-4-methyl-10,13-dioxo-2,3,9,10,13,15-hexahydro-1H,12H-benzo[de]pyrano[3′,4′:6,7]indolizino[1,2-b]quinolin-1-yl)-1-hydroxycyclobutane-1-carboxamide] | 9.00 | – | – | –
CC[C@@]1(O)C(=O)OCc2c1cc1n(c2=O)Cc2c-1nc1cc(F)c(C)c3c1c2[C@@H](NC(=O)C1(O)CCCC1)CC3 [Compound 4, N-((1S,9S)-9-Ethyl-5-fluoro-9-hydroxy-4-methyl-10,13-dioxo-2,3,9,10,13,15-hexahydro-1H,12H-benzo[de]pyrano[3′,4′:6,7]indolizino[1,2-b]quinolin-1-yl)-1-hydroxycyclopentane-1-carboxamide] | – | 8.72 | – | –
CC[C@@]1(O)C(=O)OCc2c1cc1n(c2=O)Cc2c-1nc1cc(F)c(C)c3c1c2[C@@H](NC(=O)C1(CO)CC1)CC3 [Compound 5, N-((1S,9S)-9-Ethyl-5-fluoro-9-hydroxy-4-methyl-10,13-dioxo-2,3,9,10,13,15-hexahydro-1H,12H-benzo[de]pyrano[3′,4′:6,7]indolizino[1,2-b]quinolin-1-yl)-1-(hydroxymethyl) cyclopropane-1-carboxamide] | – | – | 8.32 | –
CC[C@@]1(O)C(=O)OCc2c1cc1n(c2=O)Cc2c-1nc1cc(F)c(C)c3c1c2[C@@H](NC(=O)C1(CO)CCC1)CC3 [Compound 6, N-((1S,9S)-9-Ethyl-5-fluoro-9-hydroxy-4-methyl-10,13-dioxo-2,3,9,10,13,15-hexahydro-1H,12H-benzo[de]pyrano[3′,4′:6,7]indolizino[1,2-b]quinolin-1-yl)-1-(hydroxymethyl) cyclobutane-1-carboxamide] | 9.00 | – | – | –
CC[C@@]1(O)C(=O)OCc2c1cc1n(c2=O)Cc2c-1nc1cc(F)c(C)c3c1c2[C@@H](NC(=O)C1(O)CC1)CC3 [Compound 1, N-((1S,9S)-9-Ethyl-5-fluoro-9-hydroxy-4-methyl-10,13-dioxo-2,3,9,10,13,15-hexahydro-1H,12H-benzo[de]pyrano[3′,4′:6,7]indolizino[1,2-b]quinolin-1-yl)-1-hydroxycyclopropane-1-carboxamide] | – | 9.92 | 9.64 | –
